Experiments:
[1] = system: human DU145 androgen-independent prostate carcinoma; test: Cell uptake study in DU145 prostate carcinoma cells; assay type: cell-based; settings: for uptake in DU145 cells: no inhibitor, 30 min incubation
Procedure: (§1) Consistent with this reasoning, having knowledge of which systems take part in transporting a particular amino acid is of value, since this information can be used to determine which tumor types the amino acid may be useful for imaging. To establish which systems are responsible for transporting a particular AA, cell uptake inhibition studies are performed. In these studies, a known number of cells of a certain line are suspended in a media containing a known quantity of an amino acid radiotracer and incubated for a set period to allow for the amino acid to be transported into the cells. […] The radioactivity present within the cells after rinsing is measured and expressed as a normalized percent uptake of the radioactive amino acid dose that the cells were initially exposed to. This experiment establishes the degree to which a given amino acid is taken up by a group of cells in the absence of any perturbing conditions and serves as the control.
(§2) With this information in hand, the cell uptake experiment is performed again, but in the presence of an excess of a substrate known to have a high affinity for a particular transport system. The excess substrate floods the targeted system, competitively inhibiting the transport of other amino acids. Consequently, any reduction in cellular uptake of radioactivity relative to the control experiment is assumed to arise from loss of amino acid transport by the inhibited system. It follows that if inhibition of a transport system results in reduced uptake of a given amino acid, then that system contributes to cellular transport of the amino acid. Furthermore, the degree to which the system participates in transport can be roughly evaluated by the percent loss (inhibition) of amino acid uptake relative to the control. In addition to delineating transport mechanisms, cell uptake studies provide insight into the avidity of a particular cell line for an amino acid.
(§3) The potential of [^18F]3.09, [^18F]3.23, and [^18F]3.33 as PET radiotracers were evaluated for imaging brain and prostate cancer, cell uptake studies with rat 9 L gliosarcoma, human U87 ΔEGFR glioblastoma, and human DU145 androgen-independent prostate carcinoma. Uptake data for anti-3-[^18F]-FACBC were also collected under the same conditions for comparison. Alpha-(methylamino)isobutyric acid (MeAIB) was used as a competitive inhibitor for system A transport, 2-amino-bicyclo[2.2.1]heptane2-carboxylic acid (BCH) was used to inhibit system L, and the combination of alanine, serine, and cysteine was used for inhibition of system ASC.

[2] = system: 9 L, U87 ΔEGFR, and DU145 cell; test: Cell uptake and uptake inhibition, stated across all cell lines tested; assay type: cell-based, rat; human; settings: for relative cell uptake (in words): all cell lines; for mechanism of transport (in words): each of the cell lines tested
Procedure: Data are presented as percent ligand uptake of the initial dose per 0.5 million cells (% ID/5×10^5 cells).
as §1, §2, §3

[3] = system: intracranial 9 L gliosarcoma tumors; test: MicroPET biodistribution in Fischer rats bearing intracranial 9 L gliosarcoma tumors; assay type: in vivo; settings: for tumor uptake at final time point: final time point / final scan; for background uptake in healthy brain: normal brain, range over the study
Procedure: To gain insight into the biodistribution profiles of [^18F]3.09, [^18F]3.23, and [^18F]3.33 each was administered to Fischer rats bearing intracranial 9 L gliosarcoma tumors, which have been used extensively as models for human glioma. With each tracer, uptake in 9 L tumors was higher than in normal brain tissue at all time points, peaking near the 12.5-minute time point. Tumor uptake was highest with [^18F]3.09 and stayed fairly constant at 2.0-2.2% injected dose per gram of tissue (% ID/g) throughout the course of the study. […] While absolute uptake in tumors was highest with [^18F]3.09, background uptake in healthy brain was also highest with this stereoisomer, ranging from 0.59-0.96% % ID/g, compared to uptake values of 0.39-0.46 and 0.28-0.36% ID/g obtained with [^18F]3.23 and [^18F]3.33, respectively.
(§4) [^18F]trans-3,4-DFACPC ([^18F]3.23) was prepared in 1.3% decay corrected radiochemical yield in greater than 99% radio-chemical purity. Competitive uptake inhibition studies with 9 L gliosarcoma, human U87 ΔEGFR glioblastoma, and human DU145 androgen-independent prostate carcinoma cells to establish the mechanism of transport of [^18F]3.23, as well as its affinity for each cell line. The biodistribution of [^18F]3.23 was assessed in normal and intracranial 9 L gliosarcoma bearing rats via micro-PET imaging.

[4] = MicroPET biodistribution in normal Fischer rats (bladder accumulation); assay type: in vivo; settings: post injection
Procedure: DFACPC, and anti-3-[^18F] FACBC.
as §4
MicroPET biodistribution studies in normal Fischer rats established that bladder accumulation of [^18F]3.23 is delayed until at least 10 minutes post injection. In rats bearing intracranial 9 L gliosarcoma, [^18F]3.23 gave tumor uptake values of up to 1.2% injected dose per gram (% ID/g) and tumor to contralateral brain tissue ratios of up to 2.8.

[5] = system: human U87 ΔEGFR glioblastoma; test: Cell uptake inhibition study in U87 ΔEGFR glioblastoma cells; assay type: cell-based
Procedure: as §1, with “This experiment establishes the degree to which a given amino acid is taken up by a group of cells in the absence of any perturbing conditions and serves as the control.” left out
With this information in hand, the cell uptake experiment is performed again, but in the presence of an excess of a substrate known to have a high affinity for a particular transport system. […] Consequently, any reduction in cellular uptake of radioactivity relative to the control experiment is assumed to arise from loss of amino acid transport by the inhibited system. […] Furthermore, the degree to which the system participates in transport can be roughly evaluated by the percent loss (inhibition) of amino acid uptake relative to the control. […]

rat 9 L gliosarcoma = settings: 9 L gliosarcoma cells; cited from earlier work
[6] = 4.5-minute time point (highest for the tracer)
[7] = range over the three cell lines

## N[C@]1(C(=O)O)C[C@@H](F)[C@H]([18F])C1 (racemic) [[^18F]3.23, trans-[^18F]-1-amino-3,4-difluorocyclopentane-1-carboxylic acid]
[1]
  avidity of DU145 cells (in words): substantially greater avidity
  uptake in DU145 cells, fold higher than [^18F]-FACBC: 1.7 fold
  uptake in DU145 cells, fold higher than the best cis-3,4-DFACPC analog: ~2 fold
  uptake in DU145 cells: 34 % ID/5×10^5 cells
[2]
  relative cell uptake (in words): greater uptake than [^18F]3.33 in all cell lines
  mechanism of transport (in words): transported primarily via system L with some transport occurring via system ASC
[3]; 9 L tumor
  tumor uptake at final time point: 1.1 % ID/g
[3]; 12.5-minute mark (maximum)
  L/N ratio: 2.8
[3]; 52.5 minutes
  L/N ratio: 2.4
[3]; maximum (up to)
  tumor to contralateral brain tissue ratios: up to 2.8
[3]
  background uptake in healthy brain: 0.39-0.46 % ID/g
[4]
  bladder accumulation delayed until: at least 10 minutes

## N[C@]1(C(=O)O)C[C@@H](F)[C@@H]([18F])C1 [[^18F]3.09, anti-cis-[^18F]-1-amino-3,4-difluorocyclopentane-1-carboxylic acid]
[5]
  inhibition of uptake by BCH: 50%
  inhibition of uptake by alanine, serine, and cysteine: 78%
[1]
  uptake in DU145 cells: 18 % ID/5×10^5 cells
[2]
  relative cell uptake (in words): greater uptake than [^18F]3.33 in all cell lines
[3]; [6]
  L/N ratio: 3.5
[3]; 9 L tumor, throughout the course of the study
  tumor uptake, injected dose per gram of tissue: 2.0-2.2 % ID/g
[3]
  background uptake in healthy brain: 0.59-0.96 % ID/g

## N[C@@]1(C(=O)O)C[C@@H]([18F])[C@@H](F)C1 [[^18F]3.33, syn-cis-[^18F]-1-amino-3,4-difluorocyclopentane-1-carboxylic acid]
[3]; [6]
  L/N ratio: 4.3
[3]; 9 L tumor
  tumor uptake at final time point: 0.8 % ID/g
[3]; 9 L tumor, peak / maximum
  tumor uptake, peak value: 1.2 % ID/g
[3]
  background uptake in healthy brain: 0.28-0.36 % ID/g

## N[C@]1(C(=O)O)CCC[C@@H]1[18F] [anti-2-[^18F]-FACPC, anti-1-amino-2-[^18F] fluorocyclopentane-1-carboxylic acid]
Rat 9 L gliosarcoma
  inhibition of uptake by BCH (system L): 71%
  inhibition of uptake by MeAIB (system A): 38%
  inhibition of uptake by alanine, serine, and cysteine (system ASC): 65%

## N[C@]1(C(=O)O)C[C@@H](F)C1 [anti-3-[^18F]-FACBC, anti-1-amino-3-[^18F]fluorocyclobutane-1-carboxylic acid]
[1]
  uptake in DU145 cells: 20 % ID/5×10^5 cells
[2]; across all cell lines tested, no inhibitor, 30 min incubation
  uptake levels, percent of the initial dose per 0.5 million cells: 6-20 % ID/5×10^5 cells
[2]
  mechanism of transport (in words): primarily a substrate for system ASC
[2]; [7]
  inhibition of uptake by BCH (system L): 36-56%
  inhibition of uptake by alanine, serine, and cysteine (system ASC): 73-87%
